In paper PMC8245078, “Development of novel benzofuran-isatin conjugates as potential antiproliferative agents with apoptosis inducing mechanism in Colon cancer” (Journal of Enzyme Inhibition and Medicinal Chemistry, 2021):

Experiments:
Type in all cases: cell-based
CCRF-CEM = experiment: NCI single dose screening (10 µM); conditions: Homo sapiens, read-out: GI% (cell growth inhibition percentage)
MOLT-4 = experiment: NCI single dose screening (10 µM); conditions: Homo sapiens, MOLT-4, read-out: GI% (cell growth inhibition percentage)
SR = experiment: NCI single dose screening (10 µM); conditions: Homo sapiens, read-out: GI% (cell growth inhibition percentage)
EKVX = experiment: NCI single dose screening (10 µM); conditions: Homo sapiens, read-out: GI% (cell growth inhibition percentage)
HOP-92 = experiment: NCI single dose screening (10 µM); conditions: Homo sapiens, HOP-92, read-out: GI% (cell growth inhibition percentage)
HOP-62 = experiment: NCI single dose screening (10 µM); conditions: Homo sapiens, HOP-62, read-out: GI% (cell growth inhibition percentage)
NCI-H522 = experiment: NCI single dose screening (10 µM); conditions: Homo sapiens, NCI-H522, read-out: GI% (cell growth inhibition percentage)
NCI-H460 = experiment: NCI single dose screening (10 µM); conditions: Homo sapiens, NCI-H460, read-out: GI% (cell growth inhibition percentage)
HCC-2998 = experiment: NCI single dose screening (10 µM); conditions: Homo sapiens, HCC 2998, read-out: GI% (cell growth inhibition percentage)
HCT-15 = experiment: NCI single dose screening (10 µM); conditions: Homo sapiens, HCT-15, read-out: GI% (cell growth inhibition percentage)
HT-29 = experiment: NCI single dose screening (10 µM); conditions: Homo sapiens, HT-29, read-out: GI% (cell growth inhibition percentage)
KM12 = experiment: NCI single dose screening (10 µM); conditions: Homo sapiens, KM12, read-out: GI% (cell growth inhibition percentage)
SF-268 = experiment: NCI single dose screening (10 µM); conditions: Homo sapiens, SF-268, read-out: GI% (cell growth inhibition percentage)
U251 = experiment: NCI single dose screening (10 µM); conditions: Homo sapiens, U-251, read-out: GI% (cell growth inhibition percentage)
SNB-19 = experiment: NCI single dose screening (10 µM); conditions: Homo sapiens, SNB-19, read-out: GI% (cell growth inhibition percentage)
MALME-3M = experiment: NCI single dose screening (10 µM); conditions: Homo sapiens, Malme-3M, read-out: GI% (cell growth inhibition percentage)
M14 = experiment: NCI single dose screening (10 µM); conditions: Homo sapiens, M14, read-out: GI% (cell growth inhibition percentage)
UACC-257 = experiment: NCI single dose screening (10 µM); conditions: Homo sapiens, UACC-257, read-out: GI% (cell growth inhibition percentage)
UACC-62 = experiment: NCI single dose screening (10 µM); conditions: Homo sapiens, UACC-62, read-out: GI% (cell growth inhibition percentage)
SK-MEL-2 = experiment: NCI single dose screening (10 µM); conditions: Homo sapiens, SK-MEL-2, read-out: GI% (cell growth inhibition percentage)
SK-MEL-28 = experiment: NCI single dose screening (10 µM); conditions: Homo sapiens, SK-MEL-28, read-out: GI% (cell growth inhibition percentage)
NCI/ADR-RES = experiment: NCI single dose screening (10 µM); conditions: Homo sapiens, read-out: GI% (cell growth inhibition percentage)
IGROV1 = experiment: NCI single dose screening (10 µM); conditions: Homo sapiens, IGROV-1, read-out: GI% (cell growth inhibition percentage)
OVCAR-8 = experiment: NCI single dose screening (10 µM); conditions: Homo sapiens, OVCAR-8, read-out: GI% (cell growth inhibition percentage)
OVCAR-4 = experiment: NCI single dose screening (10 µM); conditions: Homo sapiens, OVCAR-4, read-out: GI% (cell growth inhibition percentage)
786-0 = experiment: NCI single dose screening (10 µM); conditions: Homo sapiens, 786-0, read-out: GI% (cell growth inhibition percentage)
PC-3 = experiment: NCI single dose screening (10 µM); conditions: Homo sapiens, PC-3, read-out: GI% (cell growth inhibition percentage)
DU-145 = experiment: NCI single dose screening (10 µM); conditions: Homo sapiens, DU-145, read-out: GI% (cell growth inhibition percentage)
BT-549 = experiment: NCI single dose screening (10 µM); conditions: Homo sapiens, BT-549, read-out: GI% (cell growth inhibition percentage)
HS 578 T = experiment: NCI single dose screening (10 µM); conditions: Homo sapiens, Hs-578T, read-out: GI% (cell growth inhibition percentage)
MDA-MB-468 = experiment: NCI single dose screening (10 µM); conditions: Homo sapiens, MDA-MB-468, read-out: GI% (cell growth inhibition percentage)
[1] = tested on: NCI-55 cancer cell line panel; experiment: NCI single dose screening (10 µM), whole panel; conditions: Homo sapiens, read-out: Mean inhibition, % (mean GI%)

SMILES | inhibition at 10 µM (CCRF-CEM) [%] | inhibition at 10 µM (MOLT-4) [%] | inhibition at 10 µM (SR) [%] | inhibition at 10 µM (EKVX) [%] | inhibition at 10 µM (HOP-92) [%] | inhibition at 10 µM (HOP-62) [%] | inhibition at 10 µM (NCI-H522) [%] | inhibition at 10 µM (NCI-H460) [%] | inhibition at 10 µM (HCC-2998) [%] | inhibition at 10 µM (HCT-15) [%] | inhibition at 10 µM (HT-29) [%] | inhibition at 10 µM (KM12) [%] | inhibition at 10 µM (SF-268) [%] | inhibition at 10 µM (U251) [%] | inhibition at 10 µM (SNB-19) [%] | inhibition at 10 µM (MALME-3M) [%] | inhibition at 10 µM (M14) [%] | inhibition at 10 µM (UACC-257) [%] | inhibition at 10 µM (UACC-62) [%] | inhibition at 10 µM (SK-MEL-2) [%] | further results
CCCN1C(=O)/C(=N\NC(=O)c2oc3ccccc3c2C)c2ccccc21 [Compound 7b] | < 10 | < 10 | < 10 | 32.4 | < 10 | 18.1 | 10.3 | 15.6 | < 10 | < 10 | < 10 | < 10 | < 10 | < 10 | < 10 | < 10 | < 10 | < 10 | 16.9 | < 10 | inhibition at 10 µM (SK-MEL-28): < 10%; inhibition at 10 µM (NCI/ADR-RES): 10.3%; inhibition at 10 µM (IGROV1): 42.5%; inhibition at 10 µM (OVCAR-8): < 10%; inhibition at 10 µM (OVCAR-4): < 10%; inhibition at 10 µM (786-0): < 10%; inhibition at 10 µM (PC-3): 10.8%; inhibition at 10 µM (DU-145): < 10%; inhibition at 10 µM (BT-549): < 10%; inhibition at 10 µM (HS 578 T): < 10%; inhibition at 10 µM (MDA-MB-468): < 10%; inhibition at 10 µM [1]: 5.18%
Cc1c(C(=O)N/N=C2\C(=O)N(Cc3ccccc3)c3ccccc32)oc2ccccc12 [Compound 7d] | < 10 | < 10 | < 10 | 30.2 | 12.6 | 20.8 | 21.7 | 25 | < 10 | < 10 | < 10 | < 10 | < 10 | < 10 | 11.6 | < 10 | < 10 | < 10 | 20.6 | < 10 | inhibition at 10 µM (SK-MEL-28): < 10%; inhibition at 10 µM (NCI/ADR-RES): 10.2%; inhibition at 10 µM (IGROV1): 33.6%; inhibition at 10 µM (OVCAR-8): < 10%; inhibition at 10 µM (OVCAR-4): < 10%; inhibition at 10 µM (786-0): < 10%; inhibition at 10 µM (PC-3): 15.7%; inhibition at 10 µM (DU-145): < 10%; inhibition at 10 µM (BT-549): < 10%; inhibition at 10 µM (HS 578 T): < 10%; inhibition at 10 µM (MDA-MB-468): < 10%; inhibition at 10 µM [1]: 6.01%
CCCN1C(=O)/C(=N\NC(=O)c2oc3ccccc3c2C)c2cc(Br)ccc21 [Compound 7g] | < 10 | < 10 | < 10 | 18.1 | < 10 | < 10 | < 10 | < 10 | < 10 | < 10 | < 10 | < 10 | < 10 | < 10 | < 10 | 16 | < 10 | < 10 | < 10 | < 10 | inhibition at 10 µM (SK-MEL-28): < 10%; inhibition at 10 µM (NCI/ADR-RES): < 10%; inhibition at 10 µM (IGROV1): 22.4%; inhibition at 10 µM (OVCAR-8): < 10%; inhibition at 10 µM (OVCAR-4): < 10%; inhibition at 10 µM (786-0): < 10%; inhibition at 10 µM (PC-3): < 10%; inhibition at 10 µM (DU-145): < 10%; inhibition at 10 µM (BT-549): < 10%; inhibition at 10 µM (HS 578 T): < 10%; inhibition at 10 µM (MDA-MB-468): < 10%; inhibition at 10 µM [1]: -0.8%
